A value given as a limit tells only on which side of the number the result lay.

The text below walks through data of US4957911A, “Benzazecine derivatives for cognitive and memory functions” (Hoffmann-La Roche Inc., priority 1986, dated 1990).

In one series the test system is rats. The series is described as follows: Passive avoidance in Skinner box: reversal of scopolamine-induced blocking of short-time memory. Format: in vivo, rat. As to conditions: scopolamine 0.3 mg/kg i.p. and distilled water p.o. An excerpt: The test apparatus is a "Skinner box" with an electrifiable grid floor (30×40 cm) and a grey plastic platform (15×15×0.8 cm) in the front right corner. Untrained male rats (100-120 g) are placed individually on the platform. As soon as they climb down on to the grid floor they receive a mild electric foot-shock (0.8 mA). The normal reaction of untrained rats is to climb back on to the platform. The foot-shock procedure must be repeated three to five times for each animal, after which the rats have acquired a "passive avoidance response", that is, they no longer attempt to descend from the platform to the grid floor.
Immediately thereafter three groups, each comprising 30 animals, are set up. The first group receives an injection (i.p.) of 0.3 mg/kg of scopolamine as well as distilled water (2 ml/kg p.o.). The second group receives an injection (i.p.) of 0.3 mg/kg of scopolamine and an oral dosage of the test substance. The third group receives only distilled water (p.o.).
Two hours later, each rat is placed once on the platform in the "Skinner box". […] The statistical significance of the difference between the results obtained in the first and in the second groups is determined by means of the Chi-Square test.
70-75% of the animals treated only with distilled water (p.o.) still remember 2-4 hours after learning the "passive avoidance response" that they should remain on the platform. […]

Series [1] can be described thus: Acute toxicity, single oral administration to mice (LD50). As to conditions: mouse, in vivo. An excerpt: Moreover, the Table contains data for the acute toxicity (LD50 in mg/kg in the case of single oral administration to mice).

In the case of `CN1[C@@H]2C[C@@H](OC(=O)[C@H](CO)c3ccccc3)C[C@H]1[C@@H]1O[C@@H]12` [scopolamine], in the series on rats, the “animals with retrograde effect on the short-time memory” value is 85-92% and the “duration of retrograde effect on the short-time memory” value was in the range of 3 to 4 h.
In turn, `CC(=O)N1CCCC(=O)c2c(Cl)cccc2CCC1=O` [I Cl H H H COCH3, 4-acetyl-9-chloro-1,2,4,5,6,7-hexahydro-4-benzazecine-3,8-dione] returned an LD50 in series [1] of over 5000 mg/kg.
Molecule `CC(=O)N1CCCC(=O)c2ccc(F)cc2CCC1=O` [I H H F H COCH3, 4-acetyl-11-fluoro-1,2,4,5,6,7-hexahydro-4-benzazecine-3,8-dione] had an LD50 in series [1] of over 5000 mg/kg.
The same measure, in the same setting: with `CC(=O)N1CCCC2=C1CCc1cc(Cl)ccc12` [II H H Cl H COCH3, 4-acetyl-8-chloro-1,2,3,4,5,6-hexahydrobenzo[f]quinoline] the figure was 2500 to 5000 mg/kg; with `CC(=O)N1CCCC(=O)c2c(Cl)cc(Cl)cc2CCC1=O` [I Cl H Cl H COCH3, 4-acetyl-9,11-dichloro-1,2,4,5,6,7-hexahydro-4-benzazecine-3,8-dione], over 5000 mg/kg.
Same read-out and setting: for `CC(=O)N1CCCC(=O)c2ccc(Cl)cc2CCC1=O` [I H H Cl H COCH3, 4-acetyl-11-chloro-1,2,4,5,6,7-hexahydro-4-benzazecine-3,8-dione] the value was over 5000 mg/kg.
